Results reported in PubChem BioAssay AID1963852 (Molecular Pharmacology Branch, DTP, NCI, 2024).

Test system: 282377-053-R-J1-PDC complex spheroid viability
Experiment: Anticancer human tumor 282377-053-R-J1-PDC patient-derived colon adenocarcinoma cell line growth inhibition [POLQ]
Conditions: for IC50: curve of first compound; for viability, T/C: stronger effect = lower value
Description: Multicellular complex tumor spheroid response to Polymerase (POL) inhibitors (novobiocin, ART-558, RP6685) in combination with a variety of drugs and investigational agents in selected tumor cell lines
The POL inhibitors (novobiocin, ART-558, and RP6685) were evaluated both individually and in combination with standard of care and investigational anticancer small molecules within a complex spheroid model of solid tumors. . Complex spheroids include a stromal component modeled by human endothelial cells (HUVEC) and fibroblasts modeled by human mesenchymal stem cells (MSCs). The concentration ranges selected for each drug and investigational agent were based upon clinically achievable concentrations if the clinical Cmax of the agent was known.
Compounds. The drugs and investigational agents: novobiocin (NSC847541), ART-558 (NSC835418), RP-6685 (NSC848927), peposertib (NSC802822), ceralasertib (NSC780249), elimusertib (NSC800525), camonsertib (NSC841442), AZD-1390 (NSC803789), olaparib (NSC753686), talazoparib (NSC767125), rucaparib (NSC756644), sotorasib (NSC818433), MRTX-1133 (NSC836407), SN-38 (NSC673596), topotecan (NSC609699), epotoside (NSC141540), doxorubicin (NSC123127), gemcitabine (NSC613327), 5-fluorouracil (NSC19893), paclitaxel (NSC125973), vemurafenib (NSC761431), MSA-2 (NSC828583), SN-011 (NSC837082), adavosertib (NSC754352), prexasertib (NSC758257), carboplatin (NSC241240) and oxaliplatin (NSC266046), were obtained from the National Cancer Institute (NCI) Developmental Therapeutics Program Chemical Repository (21). The FDA-approved anticancer drug set is available from the Developmental Therapeutics Program at https://dtp.cancer.gov/organization/dscb/obtaining/. […] The stock solutions were prepared in dimethyl sulfoxide (DMSO, Sigma-Aldrich, St. Louis, MO, cat. D2650), except for the platinum compounds which were prepared in saline (Quality Biological, Gaithersburg, MD, cat. 114-055-101), at 800-fold the tested concentration and stored at -70 degrees C prior to their use. All drugs and investigational agents were tested over a range starting from a high concentration at or near the clinical Cmax and decreasing in half-log increments. If the clinical Cmax for an agent had not been determined, the highest concentration tested was 10 microM, except for SN-38, which was tested at a high concentration of 1 microM.
Cell Culture. All cells were maintained in an incubator at 37 degrees C and 5% CO2 with 95% humidity. The PDC lines were cultured according to standard operating procedures established by the NCI PDMR (https://pdmr.cancer.gov). Table 3 of the manuscript, lists the cell lines along with the number of the three cell types plated to form the mct-spheroids and media for tumor cell growth. After thawing, all PDC lines, except 997537-175-T-J1-PDC and 415267-285-R-J2-PDC, were cultured in Matrigel-coated flasks prepared with a working solution of 1X Ham's F-12 nutrient mix, without supplementation (Thermo Fisher Scientific, cat. 11765054), 100 U/mL penicillin-streptomycin (Thermo Fisher Scientific, cat. 15140122), and 2.5% Matrigel (Corning Inc., Corning, NY, cat. 354248) for the first three passages. The two PDC lines 997537-175-T-J1-PDC and 415267-285-R-J2-PDC were cultured on uncoated flasks. The 857933-349-R-J2-PDC line was cultured in 6C/Colon 1B media containing advanced DMEM/F-12 (Thermo Fisher Scientific, cat. 12634028), 10 mM HEPES (Thermo Fisher Scientific, cat. 15630080), 1X GlutaMAX supplement (Thermo Fisher Scientific, cat. 35050061), 0.1 mg/mL primocin (InvivoGen, San Diego, CA, cat. ant-pm-2), 10% defined fetal bovine serum, heat inactivated (HyClone Laboratories Inc., Logan, UT, cat. SH30070.03HI), 50% L-WRN conditioned media (ATCC, cat. CRL-3276), 1.25 mM N-Acetyl-L-cysteine (Sigma-Aldrich, cat. A9165), 10 mM nicotinamide (Sigma-Aldrich, cat. N0636), 1X B-27 supplement (Thermo Fisher Scientific, cat. 17504044), 1X N-2 supplement (Thermo Fisher Scientific, cat. […]

[1] = second compound 0.0316 µM, first compound 0.0316 µM
[2] = second compound 0.0316 µM, first compound 0.1 µM
[3] = second compound 0.1 µM, first compound 0.0316 µM
[4] = second compound 0.1 µM, first compound 0.1 µM
[5] = second compound 0.316 µM, first compound 0.0316 µM
[6] = second compound 0.316 µM, first compound 0.1 µM
[7] = second compound 1 µM, first compound 0.0316 µM
[8] = second compound 1 µM, first compound 0.1 µM
[9] = second compound 3.16 µM, first compound 0.0316 µM
[10] = second compound 3.16 µM, first compound 0.1 µM
[11] = second compound 10 µM, first compound 0.0316 µM
[12] = second compound 10 µM, first compound 0.1 µM
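Also: spheroids exposed to compounds for seven days.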
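For viability, T/C in this document: 100% = DMSO vehicle control viability.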

## Cn1ncnc1[C@H]1c2n[nH]c(=O)c3cc(F)cc(c23)N[C@@H]1c1ccc(F)cc1 + Cc1cccc(N(C)C(=O)C2C(O)CCN2c2nc(C)cc(C(F)(F)F)c2C#N)c1
Second compound 0.0316 µM
  IC50: > 0.1 µM
Second compound 0.1 µM
  IC50: > 0.1 µM
Second compound 0.316 µM
  IC50: > 0.1 µM
Second compound 1 µM
  IC50: > 0.1 µM
Second compound 3.16 µM
  IC50: > 0.1 µM
Second compound 10 µM
  IC50: > 0.1 µM
Second compound 0.0316 µM, first compound 0.000316 µM
  viability, T/C: 111%
Second compound 0.0316 µM, first compound 0.001 µM
  viability, T/C: 86.9%
Second compound 0.0316 µM, first compound 0.00316 µM
  viability, T/C: 105%
Second compound 0.0316 µM, first compound 0.01 µM
  viability, T/C: 128%
[1]
  viability, T/C: 98.3%
[2]
  viability, T/C: 89.3%
Second compound 0.1 µM, first compound 0.000316 µM
  viability, T/C: 125%
Second compound 0.1 µM, first compound 0.001 µM
  viability, T/C: 125%
Second compound 0.1 µM, first compound 0.00316 µM
  viability, T/C: 102%
Second compound 0.1 µM, first compound 0.01 µM
  viability, T/C: 128%
[3]
  viability, T/C: 91.8%
[4]
  viability, T/C: 100%
Second compound 0.316 µM, first compound 0.000316 µM
  viability, T/C: 95.9%
Second compound 0.316 µM, first compound 0.001 µM
  viability, T/C: 114%
Second compound 0.316 µM, first compound 0.00316 µM
  viability, T/C: 98.2%
Second compound 0.316 µM, first compound 0.01 µM
  viability, T/C: 93.5%
[5]
  viability, T/C: 111%
[6]
  viability, T/C: 95.5%
Second compound 1 µM, first compound 0.000316 µM
  viability, T/C: 116%
Second compound 1 µM, first compound 0.001 µM
  viability, T/C: 110%
Second compound 1 µM, first compound 0.00316 µM
  viability, T/C: 89%
Second compound 1 µM, first compound 0.01 µM
  viability, T/C: 102%
[7]
  viability, T/C: 119%
[8]
  viability, T/C: 91.6%
Second compound 3.16 µM, first compound 0.000316 µM
  viability, T/C: 106%
Second compound 3.16 µM, first compound 0.001 µM
  viability, T/C: 130%
Second compound 3.16 µM, first compound 0.00316 µM
  viability, T/C: 82.9%
Second compound 3.16 µM, first compound 0.01 µM
  viability, T/C: 115%
[9]
  viability, T/C: 88.5%
[10]
  viability, T/C: 112%
Second compound 10 µM, first compound 0.000316 µM
  viability, T/C: 105%
Second compound 10 µM, first compound 0.001 µM
  viability, T/C: 102%
Second compound 10 µM, first compound 0.00316 µM
  viability, T/C: 105%
Second compound 10 µM, first compound 0.01 µM
  viability, T/C: 82.7%
[11]
  viability, T/C: 81.5%
[12]
  viability, T/C: 100%

## O=c1[nH]cc(F)c(=O)[nH]1 + Cc1cccc(N(C)C(=O)C2C(O)CCN2c2nc(C)cc(C(F)(F)F)c2C#N)c1
Second compound 0.0316 µM
  IC50: > 10 µM
Second compound 0.1 µM
  IC50: > 10 µM
Second compound 0.316 µM
  IC50: > 10 µM
Second compound 1 µM
  IC50: > 10 µM
Second compound 3.16 µM
  IC50: > 10 µM
Second compound 10 µM
  IC50: > 10 µM
[1]
  viability, T/C: 111%
[2]
  viability, T/C: 104%
Second compound 0.0316 µM, first compound 0.316 µM
  viability, T/C: 89.8%
Second compound 0.0316 µM, first compound 1 µM
  viability, T/C: 78.8%
Second compound 0.0316 µM, first compound 3.16 µM
  viability, T/C: 70.3%
Second compound 0.0316 µM, first compound 10 µM
  viability, T/C: 68.5%
[3]
  viability, T/C: 102%
[4]
  viability, T/C: 111%
Second compound 0.1 µM, first compound 0.316 µM
  viability, T/C: 128%
Second compound 0.1 µM, first compound 1 µM
  viability, T/C: 86%
Second compound 0.1 µM, first compound 3.16 µM
  viability, T/C: 76.7%
Second compound 0.1 µM, first compound 10 µM
  viability, T/C: 70.4%
[5]
  viability, T/C: 117%
[6]
  viability, T/C: 88.7%
Second compound 0.316 µM, first compound 0.316 µM
  viability, T/C: 116%
Second compound 0.316 µM, first compound 1 µM
  viability, T/C: 74.9%
Second compound 0.316 µM, first compound 3.16 µM
  viability, T/C: 80.3%
Second compound 0.316 µM, first compound 10 µM
  viability, T/C: 67.9%
[7]
  viability, T/C: 107%
[8]
  viability, T/C: 85.5%
Second compound 1 µM, first compound 0.316 µM
  viability, T/C: 105%
Second compound 1 µM, first compound 1 µM
  viability, T/C: 104%
Second compound 1 µM, first compound 3.16 µM
  viability, T/C: 82.7%
Second compound 1 µM, first compound 10 µM
  viability, T/C: 63.1%
[9]
  viability, T/C: 99.1%
[10]
  viability, T/C: 104%
Second compound 3.16 µM, first compound 0.316 µM
  viability, T/C: 80.6%
Second compound 3.16 µM, first compound 1 µM
  viability, T/C: 88.6%
Second compound 3.16 µM, first compound 3.16 µM
  viability, T/C: 80.1%
Second compound 3.16 µM, first compound 10 µM
  viability, T/C: 68.7%
[11]
  viability, T/C: 113%
[12]
  viability, T/C: 109%
Second compound 10 µM, first compound 0.316 µM
  viability, T/C: 107%
Second compound 10 µM, first compound 1 µM
  viability, T/C: 76.4%
Second compound 10 µM, first compound 3.16 µM
  viability, T/C: 69.7%
Second compound 10 µM, first compound 10 µM
  viability, T/C: 63.8%
